Assay results reported in patent publication US20240116880A1, “CERTAIN CHEMICAL ENTITIES, COMPOSITIONS, AND METHODS” (NeuPharma, Inc, priority 2020, published 2024).

Test: Accelerated and long-term stability tests of Crystalline Form I
Format: physicochemical
Settings: for Purity: HPLC
Protocol: X-ray powder diffraction (XRPD) patterns were obtained on a Shimadzu XRD-6000. A CuK source (=1.54056 angstrom) operating minimally at 40 kV and 30 mA scans each sample between 5 and 50 degrees 2-theta. The step size is 0.02 degrees 2-theta and the scan speed is 1 second per step.
Differential scanning calorimetry analysis was carried out on a TA Instrument DSC unit (METTLER DSC 3). Samples were heated in non-hermetic aluminum pans from ambient to 300° C. at 20 K/min with a nitrogen purge of 50 mL/min.
High-performance liquid chromatography (HPLC) was performed using the following instrument and/or conditions.
Example 8. Stability Tests of Crystalline Form I
Crystalline Form I was not changed after storage at 40° C./75% RH for 6 months, or storage at 25° C./60% RH for 6 months.

[1] = 25° C./60% RH (closed), 0 month
[2] = 25° C./60% RH (closed), 6 months
[3] = 40° C./75% RH (closed), 0 month
[4] = 40° C./75% RH (closed), 6 months

- Appearance [1]: Yellow powder
- DSC [1]: 186.56 °C
- XRPD [1]: Form I
- Purity [1]: 99.93%
- Appearance [2]: Yellow powder
- DSC [2]: 186.08 °C
- XRPD [2]: Form I
- Purity [2]: 99.92%
- Appearance [3]: Yellow powder
- DSC [3]: 186.56 °C
- XRPD [3]: Form I
- Purity [3]: 99.93%
- Appearance [4]: Yellow powder
- DSC [4]: 186.54 °C
- XRPD [4]: Form I
- Purity [4]: 99.92%
- Change of crystalline form after storage (storage at 25° C./60% RH for 6 months): not changed
- Change of crystalline form after storage (storage at 40° C./75% RH for 6 months): not changed
Structure (SMILES): CCCS(=O)(=O)Nc1cc(F)c(F)c(C(=O)c2ccc3ncc(N4CCOCC4)nc3c2)c1F [Crystalline Form I, N-(2,4,5-trifluoro-3-(3-morpholinoquinoxaline-6-carbonyl)phenyl)propane-1-sulfonamide]
